Reference: US9770026B2, “Substituted pyrimidine compound and uses thereof” (Shenyang Sinochem Agrochemicals R&D Co., Ltd., priority 2012, dated 2017)
Like-named read-outs stand apart in the source and are kept apart here.

What was measured:
[1] = test system: Green peach aphids (Myzus Persicae Sulzer); test: bioactivity test against green peach aphid, airbrush foliar spray; format: in vivo; settings: Myzus persicae, foliar, 48 h
Procedure, shortened: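 Aphids (15-30 per cabbage leaf disc) on moist filter paper were airbrush-sprayed at 10 psi, 0.5 mL, with compound from acetone:methanol (1:1) diluted in water with 0.1% tween 80. Held at 25±1 C, 60±5% RH; survivors counted after 48 hrs to give death rates.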

armyworm = test: bioactivity test against armyworm, airbrush spray; format: in vivo; settings: 72 h; for pest or weed control at 600 µg/mL: 600 mg/L
cucumber gray mold = test: fungicidal activity in vitro (inhibition rate) against cucumber gray mold; format: cell-based; settings: read-out: inhibition rate against cucumber gray mold
corn rust = test: protectant activity in vivo against corn rust; settings: Zea mays, 168 h; for pest or weed control at 6.25 µg/mL: read-out: control effect against corn rust (%), 6.25 mg/L; for pest or weed control at 6.25 µg/mL / pest or weed control at 25 µg/mL / pest or weed control at 100 µg/mL / pest or weed control at 400 µg/mL: protectant activity; for pest or weed control at 25 µg/mL: read-out: control effect against corn rust (%), 25 mg/L; for pest or weed control at 100 µg/mL: read-out: control effect against corn rust (%), 100 mg/L; for pest or weed control at 400 µg/mL: read-out: control effect against corn rust (%), 400 mg/L
cucumber downy mildew = test: protectant activity in vivo against cucumber downy mildew; settings: Cucumis sativus, 168 h; for pest or weed control at 25 µg/mL: read-out: control effect against cucumber downy mildew (%), 25 mg/L; for pest or weed control at 50 µg/mL: read-out: control effect against cucumber downy mildew (%), 50 mg/L; for pest or weed control at 100 µg/mL: read-out: control effect against cucumber downy mildew (%), 100 mg/L
carmine spider mite = test: bioactivity test against carmine spider mite, airbrush spray; format: in vivo; settings: Tetranychus cinnabarinus, 72 h; for pest or weed control at 600 µg/mL / pest or weed control at 10 µg/mL / pest or weed control at 100 µg/mL: read-out: Insecticidal activity against carmine spider mite (% )
Procedure, shortened: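 Broadbean seedlings infested with adult mites were sprayed with compound (acetone/methanol stock diluted in 0.1% Tween 80 water) by airbrush at 0.7 kg/cm^2, 0.5 ml. Three replicates were run. Mortality was scored after 72 hrs.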

wheat powdery mildew = test: protectant activity in vivo against wheat powdery mildew; settings: Triticum aestivum, 168 h; for pest or weed control at 400 µg/mL: read-out: control effect against wheat powdery mildew (%), 400 mg/L
Diamond back moth = test: insecticidal activity against diamond back moth, airbrush spray; format: in vivo; settings: 72 h, 600 ppm, mortality after 72 hrs; read-out: control (test results against diamond back moth)
Procedure, shortened: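 Airbrush leaf-disc spray test: both faces of 2 cm cabbage discs received 0.5 ml of test solution at 0.7 kg/cm^2. Solutions were made in acetone:methanol (1:1) and brought to concentration with 0.1% Tween 80 in water. Ten second-instar larvae per disc, triplicates, were held at 25° C and 60˜70% R.H., with mortality recorded at 72 hrs.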

rice blast = test: microbe, parasite or virus in culture; format: cell-based; settings: Pyricularia oryzae, read-out: inhibition rate against rice blast, 25 ppm, in vitro
[2] = 10 mg/L, contrastive test, read-out: Insecticidal activity against peach aphid (%)
[3] = 100 mg/L, contrastive test, read-out: Insecticidal activity against peach aphid (%)
[4] = 600 mg/L, contrastive test, read-out: Insecticidal activity against peach aphid (%)
[5] = read-out: Insecticidal activity against armyworm (%)
[6] = read-out: control effect against cucumber downy mildew (%), 400 mg/L, protectant activity
[7] = read-out: Insecticidal activity against peach aphid (%)

`CCc1ncnc(NCc2ccc(Oc3ccc(C(F)(F)F)cc3)cc2)c1Cl` [CK54, reference compound] gave a pest or weed control at 10 µg/mL [1, 2] of 34%, a pest or weed control at 100 µg/mL [1, 3] of 100% and a pest or weed control at 600 µg/mL [1, 4] of 100%. For the same molecule, the pest or weed control at 600 µg/mL (armyworm; [5]) was 67%, the inhibition at 25 ppm (cucumber gray mold; 25 ppm, in vitro) was 0% and the pest or weed control at 6.25 µg/mL (corn rust) was 0%. For the same molecule, the pest or weed control at 25 µg/mL (corn rust) was 30%, the pest or weed control at 100 µg/mL (corn rust) was 60% and the pest or weed control at 400 µg/mL (corn rust) was 100%. For the same molecule, the pest or weed control at 25 µg/mL (cucumber downy mildew; protectant activity) was 65%, the pest or weed control at 50 µg/mL (cucumber downy mildew; protectant activity) was 80% and the pest or weed control at 100 µg/mL (cucumber downy mildew; protectant activity) was 90%. For the same molecule, the pest or weed control at 400 µg/mL (cucumber downy mildew; [6]) was 100%.
For `CC(Cl)c1ncnc(NCCc2ccc(Oc3ccc(Cl)nn3)cc2)c1Cl` (stereo not shown) [CK62, reference compound], the inhibition at 25 ppm (cucumber gray mold; 25 ppm, in vitro) was under 50%, the pest or weed control at 600 µg/mL (carmine spider mite; 600 mg/L, contrastive test) was 0% and the pest or weed control at 400 µg/mL (cucumber downy mildew; [6]) was 80%.
Molecule `FC(F)(F)c1ccc(Oc2ccc(CCNc3ncnc(Cl)c3Cl)cc2)nc1` [CK73, reference compound] has a pest or weed control at 10 µg/mL [1, 2] of 0%, a pest or weed control at 100 µg/mL [1, 3] of 100% and a pest or weed control at 600 µg/mL [1, 4] of 100%. The pest or weed control at 10 µg/mL (armyworm; 10 mg/L, read-out: Insecticidal activity against armyworm (%)) was 0%, the pest or weed control at 100 µg/mL (armyworm; 100 mg/L, read-out: Insecticidal activity against armyworm (%)) was 50% and the pest or weed control at 600 µg/mL (armyworm; [5]) was 100%. For the same molecule, the inhibition at 25 ppm (cucumber gray mold; 25 ppm, in vitro) was 0%, the pest or weed control at 10 µg/mL (carmine spider mite; 10 mg/L, contrastive test) was 24% and the pest or weed control at 100 µg/mL (carmine spider mite; 100 mg/L, contrastive test) was 85%. For the same molecule, the pest or weed control at 600 µg/mL (carmine spider mite; 600 mg/L, contrastive test) was 100%, the pest or weed control at 6.25 µg/mL (corn rust) was 0% and the pest or weed control at 25 µg/mL (corn rust) was 10%. For the same molecule, the pest or weed control at 100 µg/mL (corn rust) was 90%, the pest or weed control at 400 µg/mL (corn rust) was 100% and the pest or weed control at 25 µg/mL (cucumber downy mildew; protectant activity) was 60%. The pest or weed control at 50 µg/mL (cucumber downy mildew; protectant activity) was 95%, the pest or weed control at 100 µg/mL (cucumber downy mildew; protectant activity) was 98% and the pest or weed control at 400 µg/mL (cucumber downy mildew; [6]) was 98%. For the same molecule, the pest or weed control at 400 µg/mL (wheat powdery mildew; protectant activity) was 40%.
`COc1cc(CCNc2ncnc(C(F)F)c2Cl)ccc1Oc1ccc(Cl)cc1` [II-10583] showed a pest or weed control at 10 µg/mL [1, 2] of 100%, a pest or weed control at 100 µg/mL [1, 3] of 100% and a pest or weed control at 600 µg/mL [1, 4] of 100%. For the same molecule, the pest or weed control at 10 ppm ([1]; 10 ppm, death rate after 48 hrs) was 100%, the pest or weed control at 100 ppm ([1]; 100 ppm, death rate after 48 hrs) was 100% and the pest or weed control at 600 ppm ([1]; 600 ppm, death rate after 48 hrs) was 100%. For the same molecule, the pest or weed control at 600 ppm (armyworm; 600 ppm, mortality after 72 h) was 100%, the pest or weed control at 600 ppm (Diamond back moth) was 100% and the pest or weed control at 600 ppm (carmine spider mite; 600 ppm, mortality after 72 hrs) was 100%. For the same molecule, the inhibition at 25 ppm (rice blast) was 80 to 99%, the pest or weed control at 25 ppm (corn rust; read-out: protectant activity against corn rust in vivo, 25 ppm) was 80 to 99% and the pest or weed control at 100 ppm (corn rust; read-out: protectant activity against corn rust in vivo, 100 ppm) was 100%. It also gave a pest or weed control at 400 ppm (corn rust; read-out: protectant activity against corn rust in vivo, 400 ppm) of 100%, a pest or weed control at 6.25 µg/mL (cucumber downy mildew; read-out: control effect against cucumber downy mildew (%), 6.25 mg/L, protectant activity) of 95% and a pest or weed control at 12.5 µg/mL (cucumber downy mildew; read-out: control effect against cucumber downy mildew (%), 12.5 mg/L, protectant activity) of 95%. For the same molecule, the pest or weed control at 25 µg/mL (cucumber downy mildew; protectant activity) was 95%, the pest or weed control at 50 µg/mL (cucumber downy mildew; protectant activity) was 100% and the pest or weed control at 100 µg/mL (cucumber downy mildew; protectant activity) was 100%. The pest or weed control at 400 µg/mL (cucumber downy mildew; [6]) was 100%, the pest or weed control at 6.25 ppm (cucumber downy mildew; read-out: protectant activity against cucumber downy mildew in vivo, 6.25 ppm) was 80 to 99% and the pest or weed control at 12.5 ppm (cucumber downy mildew; read-out: protectant activity against cucumber downy mildew in vivo, 12.5 ppm) was 80 to 99%. For the same molecule, the pest or weed control at 25 ppm (cucumber downy mildew; read-out: protectant activity against cucumber downy mildew in vivo, 25 ppm) was 80 to 99%, the pest or weed control at 50 ppm (cucumber downy mildew; read-out: protectant activity against cucumber downy mildew in vivo, 50 ppm) was 80 to 99% and the pest or weed control at 100 ppm (cucumber downy mildew; read-out: protectant activity against cucumber downy mildew in vivo, 100 ppm) was 100%. It also gave a pest or weed control at 400 ppm (cucumber downy mildew; read-out: protectant activity against cucumber downy mildew in vivo, 400 ppm) of 100%, a pest or weed control at 6.25 µg/mL (wheat powdery mildew; read-out: control effect against wheat powdery mildew (%), 6.25 mg/L, protectant activity) of 100% and a pest or weed control at 25 µg/mL (wheat powdery mildew; read-out: control effect against wheat powdery mildew (%), 25 mg/L, protectant activity) of 100%. For the same molecule, the pest or weed control at 100 µg/mL (wheat powdery mildew; read-out: control effect against wheat powdery mildew (%), 100 mg/L, protectant activity) was 100%, the pest or weed control at 400 µg/mL (wheat powdery mildew; protectant activity) was 100% and the pest or weed control at 6.25 ppm (wheat powdery mildew; read-out: protectant activity against wheat powdery mildew in vivo, 6.25 ppm) was 100%. It also gave a pest or weed control at 25 ppm (wheat powdery mildew; read-out: protectant activity against wheat powdery mildew in vivo, 25 ppm) of 100%, a pest or weed control at 100 ppm (wheat powdery mildew; read-out: protectant activity against wheat powdery mildew in vivo, 100 ppm) of 100% and a pest or weed control at 400 ppm (wheat powdery mildew; read-out: protectant activity against wheat powdery mildew in vivo, 400 ppm) of 100%.
Work on `CC(F)c1ncnc(NCCc2ccc(OC(F)(F)F)cc2)c1Cl` (stereo not shown) [flufenerim, reference compound] yielded a pest or weed control at 1.25 µg/mL [1, 7] of 37%, a pest or weed control at 2.5 µg/mL [1, 7] of 90% and a pest or weed control at 5 µg/mL [1, 7] of 100%. For the same molecule, the pest or weed control at 10 µg/mL [1, 7] was 100%, the pest or weed control at 100 µg/mL [1, 7] was 100% and the pest or weed control at 600 µg/mL [1, 7] was 100%. For the same molecule, the inhibition at 25 ppm (cucumber gray mold) was 0%, the pest or weed control at 10 µg/mL (carmine spider mite) was 72% and the pest or weed control at 100 µg/mL (carmine spider mite) was 100%. The pest or weed control at 600 µg/mL (carmine spider mite) was 100% and the pest or weed control at 400 µg/mL (cucumber downy mildew; read-out: control effect against cucumber downy mildew (%)) was 0%.
